The record followed here is publication PMC8911640, “Synthesis and Structure–Activity Relationship of Thioacetamide-Triazoles against Escherichia coli” (Molecules, 2022).

One data set can be described thus: Solubility. Type of data set: physicochemical. As for the experimental part: (§1) The in vitro ADME values (solubility, mouse plasma stability, human plasma stability, mouse metabolic stability, and human metabolic stability) were determined as previously reported.
The nature of another data set: Plasma stability (human). Type of data set: in vitro ADME. Conditions: read-out: Plasma Stability (Human) t1/2 (converted). As for the experimental part:
as §1

The subject of the next data set is E. coli K12 MG1655. Briefly: MIC testing by CLSI broth microdilution in M9-based minimal media ATCC 2511, with or without methionine. Type of data set: cell-based, Escherichia coli. Conditions: for MIC90: Escherichia coli; for antibacterial activity against E. coli in words: E. coli K12. As for the experimental part:
To explore the SAR around the right hand aryl portion of the TAT series (Table 1), compounds were evaluated for their in vitro antibacterial activity against E. coli in the M9-based minimal media ATCC 2511. […]. An MIC shift between the two medias was used to indicate that antibacterial activity of the compounds remained on target, and this was happily seen with all of the most MIC active compounds generated in this study. Within the first series of compounds in Table 1, modifications to the phenyl ring are generally well tolerated. MICs remain within 2-fold of the initial hit 1 for the fluoro- and cyano- substituted compounds 1–8. […]. Incorporating the electron-donating group -OMe and sterically bulky iodine group in both ortho and para position, 17–20, maintained activity, whereas the introduction of the strong electron-withdrawing -CF3 group, 21 and 22, led to poorer MIC activity. […] The phenyl ring isosteres—thiazoles 25 and 26—both retained good MIC activity. Adding a methyl branch to the thioacetamide linker 28 and 29 led to a striking loss of activity. Replacement of the aryl group with the aliphatic groups cyclohexyl 31, cyclopentyl 32, tert-butyl groups 33 all reduced activity.
MICs were determined following CLSI broth microdilution susceptibility M100 guidelines. Compound solutions were prepared in DMSO and serially diluted 1:2 in 100 μL/well in 96 well round-bottom plates. E. coli K12 MG1655 was acquired from ATCC and strictly maintained in the M9-based media ATCC 2511. ATCC 2511 was also used for all further cultivation and MIC testing. Bacteria were grown from a single colony to a mid-log OD600 and frozen in 0.5 mL aliquots. These aliquots were used to directly inoculate the assay plates by diluting to an OD600 of 0.001 and plating 100 μL per well, allowing for ~10^5 CFU to be added to each well.
(In general: Broth dilution looks for growth in wells or tubes with falling amounts of substance.)

A short description of data set [1]: Metabolic (microsomal) stability (mouse). Type of data set: in vitro ADME. Conditions: microsomes; for half-life: read-out: Metabolic Stability (Mouse) t1/2 (converted). As for the experimental part: as §1
The nature of data set [2]: Metabolic (microsomal) stability (human). Type of data set: in vitro ADME. Conditions: microsomes; for half-life: read-out: Metabolic Stability (Human) t1/2 (converted). As for the experimental part: as §1
The next data set is described as follows: Plasma stability (mouse). Type of data set: in vitro ADME. The settings on record: read-out: Plasma Stability (Mouse) t1/2 (converted). As for the experimental part: as §1
A short description of data set [3]: Pharmacokinetic evaluation in mice, single intravenous dose. Type of data set: in vivo. The settings on record: 10 mg/kg, plasma. As for the experimental part:
Pharmacokinetic parameters of 25 in plasma following a single intravenous dose of 10mg/kg administration to male Balb/c mice were done at SAI LifeSciences Ltd., Telangana, India (Table S2). Briefly, nine male mice were used in this study. All the animals were administered with 25 solution formulation in 5% NMP, 5% Solutol HS-15 and 90% Normal saline intravenously at 10 mg/kg dose. Blood samples (~60 μL) were collected from retro orbital plexus under light isoflurane anesthesia at following time points at Pre-dose, 0.08, 0.25, 0.5, 1, 2, 4, 8 and 24 h. Blood samples were collected from a set of three mice at each time point (sparse sampling) in labeled microcentrifuge tube containing 20% K2EDTA solution as anticoagulant. Plasma samples were separated by centrifugation of whole blood and stored below −70 ± 10 °C until bioanalysis. All samples were processed for analysis by protein precipitation using acetonitrile (ACN) and analyzed with fit-for-purpose LC/MS/MS method (LLOQ: 5.04 ng/mL). Pharmacokinetic parameters were calculated using the non-compartmental analysis tool of Phoenix WinNonlin (Version 7.0). All procedures of the study were in accordance with the guidelines provided by the Committee for the Purpose of Control and Supervision of Experiments on Animals (CPCSEA) as published in The Gazette of India, 15 December 1998. Prior approval of the Institutional Animal Ethics Committee (IAEC) was obtained before initiation of the study.

The next data set concerns E. coli K12. Briefly: Whole cell accumulation in E. coli K12 (LC-MS/MS). Also noted: dose or concentration left out as unconfirmed. The settings on record: 10 min, 37 °C; average of three biological replicates.
The mark [4] stands for this setting: pH 7.4, aqueous buffer, pH 7.4 (Table S1), read-out: Solubility Avg. Sol.
[5] abbreviates: pH 7.4, aqueous buffer, pH = 7.4, average of triplicate ± standard deviation, read-out: Avg. Sol.
The mark [6] stands for this setting: MG1655, read-out: E. coli K12 MIC90.
[7] abbreviates: No Supplement (N.S.), ATCC 2511 media, 16 h, 37 °C, read-out: E. coli K12 MIC90.
[8] abbreviates: No Supplement (N.S.), ATCC 2511 media, 16 h, 37 °C.
Setting [9] is: pH = 7.4, average of triplicate ± standard deviation.

SMILES strings stand for the structures. Converted amounts (≈) assume the structure as drawn. “And” between values parts separate entries of the source, which are not always exact repeats. Equal values may be shown once. Read-outs that look alike come from different tables or passages of the source. A value given as a limit tells only on which side of the number the result lay.

Consider `CCCSc1ccc2nc(NC(=O)OC)[nH]c2c1` [Albendazole, reference compound], for which, in “Solubility” (aqueous buffer, pH 7.4 (Table S1), read-out: Solubility Avg. Sol), the solubility is 5.33 µg/mL and 20.1 µM. Moreover, in “Solubility” (pH 7.4 (Table S1)), the “%Soluble” value is given as 20.1%.
Regarding `NC(=O)N1c2ccccc2C=Cc2ccccc21` [Carbamazepine, reference compound], the “%Soluble” value in the data set “Solubility” (pH 7.4 (Table S1)) stood at 85.1%. The solubility in the data set “Solubility” (setting [4]) is 20.1 µg/mL and 85.1 µM.
Turning to `O=C(CSc1cnn[nH]1)Nc1ccccc1F` [Compound 1], the half-life in the data set “Plasma stability (human)” is 34.8 ± 0.3 h; in data set [1] it was 0.27 ± 0.01 h; in data set [2] it was 3 ± 0.2 h; in “Plasma stability (mouse)”, 0.39 ± 0.01 h. Also, in the data set “Solubility” (pH 7.4 (Table S1)), the “%Soluble” value was found to be 65.2%. The solubility was 16.4 µg/mL and 65.2 µM in “Solubility” (setting [4]); 16 ± 0.8 µg/mL (≈ 63.4 µM) in the data set “Solubility” (setting [5]). Besides, the MIC90 – broadly, an inhibitory concentration at the 90% level, which refers to growth in some studies and to a panel of isolates in others – in the data set with E. coli K12 MG1655 (setting [6]) was 12.5 µg/mL (≈ 49.5 µM); in the data set on E. coli K12 MG1655 (setting [7]) it was 1.6 µg/mL (≈ 6.34 µM). Further, the “E. coli K12 MIC90” value with E. coli K12 MG1655 (setting [8]) was at most 3.1 µg/mL. Further, the CLint scaled (usually the rate of metabolic loss divided by the concentration) in data set [1] stood at 209 mL/min/kg; in data set [2], 7 mL/min/kg.
For `O=C(CSc1cnn[nH]1)Nc1ccc(F)cc1` [Compound 2], the half-life in the data set “Plasma stability (human)” is 36.3 ± 5.5 h; in data set [1], 0.65 ± 0.03 h; in data set [2] it was 4.7 ± 0.4 h; in “Plasma stability (mouse)”, 2.5 ± 0.2 h. For the same compound, the “%Soluble” value in “Solubility” (pH 7.4 (Table S1)) worked out at 73.4%. For the same compound, the solubility in the data set “Solubility” (setting [4]) is 18.5 µg/mL and 73.4 µM; in the data set “Solubility” (setting [5]), 18 ± 2.3 µg/mL (≈ 71.4 µM). The MIC90 worked out at 12.5 µg/mL (≈ 49.5 µM) in the data set with E. coli K12 MG1655 (setting [6]) and 3.1 µg/mL (≈ 12.3 µM) in the data set with E. coli K12 MG1655 (setting [7]). Also, the CLint scaled was determined as 87.4 mL/min/kg in data set [1] and 4.4 mL/min/kg in data set [2].
For the compound `N#Cc1ccccc1NC(=O)CSc1cnn[nH]1` [Compound 3], the half-life in “Plasma stability (human)” was 23 ± 1.1 h; in data set [1], 1.13 ± 0.05 h; in data set [2], 3.7 ± 0.3 h; in “Plasma stability (mouse)”, 1.1 ± 0.02 h. For the same compound, in the data set “Solubility” (pH 7.4 (Table S1)), the “%Soluble” value is recorded as 73.3%. The solubility in the data set “Solubility” (setting [4]) is 19 µg/mL and 73.3 µM. The “Avg. Sol” value in the data set “Solubility” (setting [9]) worked out at 19 ± 1.5 µg/mL. Further, the MIC90 in the data set on E. coli K12 MG1655 (setting [6]) is 12.5 µg/mL (≈ 48.2 µM); in the data set on E. coli K12 MG1655 (setting [7]) it was 3.1 µg/mL (≈ 12 µM). Further, the figures for the CLint scaled in data set [1] and in data set [2] were 50.5 mL/min/kg and 5.7 mL/min/kg, respectively.
As for `O=C(CSc1cnn[nH]1)Nc1ccccn1` [Compound 9], the half-life in the data set “Plasma stability (human)” was 19.9 ± 1.9 h; in data set [1], 0.71 ± 0.02 h; in data set [2], 2.7 ± 0.2 h; in “Plasma stability (mouse)”, 2.7 ± 0.2 h. Besides, the “%Soluble” value in the data set “Solubility” (pH 7.4 (Table S1)) amounted to 87.4%. The solubility was 20.6 µg/mL and 87.4 µM in the data set “Solubility” (setting [4]); 20 ± 0.3 µg/mL (≈ 85 µM) in “Solubility” (setting [5]). The MIC90 came to 12.5 µg/mL (≈ 53.1 µM) in the data set with E. coli K12 MG1655 (setting [6]) and 1.6 µg/mL (≈ 6.8 µM) in the data set with E. coli K12 MG1655 (setting [7]). Besides, in the data set with E. coli K12 MG1655 (setting [8]), the “E. coli K12 MIC90” value is at most 3.1 µg/mL. Besides, the results for the CLint scaled in data set [1] and in data set [2] were 80.4 mL/min/kg and 7.7 mL/min/kg, respectively.
As to `O=C(CSc1cnn[nH]1)Nc1nccs1` [Compound 25], the half-life was 32.1 ± 5.4 h in the data set “Plasma stability (human)”; 0.55 h in data set [3] (mouse, male Balb/c mice, read-out: T(1/2), elimination half-life (converted)); 2 ± 0.1 h in data set [1]; 3.6 ± 0.3 h in data set [2]; 13.3 ± 1.6 h in “Plasma stability (mouse)”. In addition, the AUCinf in data set [3] (male Balb/c mice) stood at 2807 ng·h/mL. Further, the area under the curve AUC(0-inf) (usually total exposure, with the tail of the curve extrapolated) in data set [3] (male, Balb/c, mouse, iv) turned out to be 2810 ng·h/mL. In addition, in data set [3] (mouse, male Balb/c mice), the AUC(0-t) (as a rule, the area under the concentration-time curve up to a stated or last time point) stood at 2800 ng·h/mL. Moreover, in data set [3] (mouse, male Balb/c mice), the C0 came to 7710 ng/mL. Further, in data set [3] (mouse, male Balb/c mice), the clearance (usually the rate of elimination divided by the concentration) is 59.4 mL/min/kg. Further, the Vd in data set [3] (mouse, male Balb/c mice, read-out: Vss) stood at 1.16 L/kg. Also, the “%Soluble” value in the data set “Solubility” (pH 7.4 (Table S1)) stood at 87.3%. The solubility in the data set “Solubility” (setting [4]) is 21.1 µg/mL and 87.3 µM. Besides, in “Solubility” (setting [9]), the “Avg. Sol” value worked out at 21 ± 1.8 µg/mL. For the same compound, the figures for the MIC90 in the data set with E. coli K12 MG1655 (setting [6]) and with E. coli K12 MG1655 (setting [7]) were 12.5 µg/mL (≈ 51.8 µM) and 3.1 µg/mL (≈ 12.8 µM), respectively. In the data set with E. coli K12 MG1655 (setting [8]), the “E. coli K12 MIC90” value is at most 3.1 µg/mL. Besides, the CLint scaled in data set [1] was determined as 29.1 mL/min/kg; in data set [2] it was 5.8 mL/min/kg.
For the compound `N[C@H]1CCN(c2ccc(NC(=O)CSc3cnn[nH]3)cc2)C1` [Compound 50], the MIC90 with E. coli K12 MG1655 (setting [7]) is above 200 µg/mL. Also, in the data set on E. coli K12, the “Whole Cell Accumulation in E. coli” value is recorded as 9.0 ± 2 μM/10^10 CFU.
Take `O=C(CSc1cnn[nH]1)Nc1ccc(N2C[C@@H]3NCCO[C@H]3C2)cc1` [Compound 53]: the MIC90 in the data set on E. coli K12 MG1655 (setting [7]) is above 200 µg/mL. In addition, the “Whole Cell Accumulation in E. coli” value in the data set with E. coli K12 is 19 ± 1 μM/10^10 CFU.
On the same counts, the results for `CN1CCN(c2ccc(NC(=O)CSc3cnn[nH]3)cc2)CC1` [Compound 56] are above 200 µg/mL and 4.7 ± 2 μM/10^10 CFU.
As for `O=C(NCCSc1cnn[nH]1)c1ccccc1F` [Compound 58], the “antibacterial activity against E. coli in words” value in the data set with E. coli K12 MG1655 is reported as “moderate activity”. The MIC90 in the data set with E. coli K12 MG1655 (setting [7]) amounted to 12.5 µg/mL (≈ 46.9 µM). Further, the “Whole Cell Accumulation in E. coli” value in the data set on E. coli K12 is listed as 7.0 ± 1 μM/10^10 CFU.
`O=C(NCCSc1cnn[nH]1)c1ccc(O)c(O)c1` [Compound 59]: the “antibacterial activity against E. coli in words” value in the data set on E. coli K12 MG1655 is on record as “moderate activity”. For the same compound, the MIC90 with E. coli K12 MG1655 (setting [7]) was determined as 50 µg/mL (≈ 178 µM). Besides, in the data set on E. coli K12, the “Whole Cell Accumulation in E. coli” value is 1.0 ± 0.1 μM/10^10 CFU.
